Assay results taken from publication PMC8151276, “An Integrated Approach toward NanoBRET Tracers for Analysis of GPCR Ligand Engagement” (Molecules, 2021).

Assays:
OPRM1 = molecular target: T1, OPRM1 (Homo sapiens, UniProt P35372); assay: NanoBRET screen HiBiT-OPRM1 in HEK293; format: binding; settings: OPRM1
T1 construct: purchased Promega (in-house HiBiT-GPCR construct library, NanoBRET)
Description: (§1) Each tracer candidate was screened across the entire library of HiBiT-GPCR constructs using NanoBRET as the detection modality. As depicted in Figure 4A, the specificity of interactions was evaluated through decrease in BRET due to competitive displacement of a bound tracer by excess parental compound. Each tracer was analyzed for binding to each HiBiT-GPCR fusion in the absence and in the presence of competing parental compound. Briefly, HEK293 cells were transfected with HiBiT-GPCR constructs diluted into promoterless DNA to reduce expression and maximize translocation to the cell surface. Each tracer candidate was then screened at concentrations of 1 μM and 0.1 μM across cells expressing these fusions. Cells were treated for 1.5 h with tracer either alone or in the presence of 20 μM competing parental compound (i.e., control). BRET was measured upon addition of purified LgBiT and subsequent complementation with HiBiT genetically fused to a GPCR. The specificity of interactions was assessed through a decrease in BRET signal due to competitive displacement of the bound tracer. To further gauge the robustness of these interactions, the fold response over the control (i.e., BRETtracer/BRETcontrol) was calculated. We chose a 1.5-fold response, which translates to ≥7-fold signal over noise as the minimal threshold required to score an interaction as positive.
(§2) HiBiT-GPCR DNA constructs were diluted in 10 mM Tris pH 8 to a final concentration of 0.01 μg/μL, arrayed in 96-well plates and stored at −20 °C. For transfection, HEK293 cells were suspended in Opti-MEM (without phenol red) supplemented with 2% fetal bovine serum (Seradigm) and 100 units/mL penicillin–streptomycin (Gibco) at a final concentration of 220,000 cells/mL and dispensed into white 96-well plates at 90 μL/well. Subsequent transfections and screens were carried using an Agilent Bravo Automated Liquid Handling Platform. First, the 96-well HiBiT DNA arrays were diluted 25-fold in Opti-MEM (without serum or phenol red) to a final concentration of 0.0004 μg/μL and 20 μL of the diluted DNAs were transferred into new 96-well plates. Next, promoterless carrier DNA (1 μg/μL) was diluted 25-fold (0.04 μg/μL) and then dispensed into the diluted arrays at 20 μL/well. Following brief mixing, Viafect transfection reagent (Promega) diluted 16-fold into Opti-MEM was dispensed into the plates at 40 μL/well. After mixing by pipetting, plates were incubated for 10 min on the pipetting station deck. The DNA-transfection reagent complexes were then added to plates containing cells. To facilitate the screen, 10 μL of DNA-transfection reagent complexes were added in duplicates to the top 4 and bottom 4 rows, resulting in two identical 48-well arrays per plate. Plates with transfected cells were incubated for 18–20 h at 37 °C/5% CO2. A screen of each tracer across the entire library using two different concentrations requires duplicate plates of transfected cells. Depending on the number of tracers being screened, transfections can be scaled up using the same ratios. The next day, for each tracer, four 20× screening solutions in tracer dilution buffer (Promega) were prepared: two duplicates at final concentration of 20 μM and two duplicates at a final concentration of 2 μM. […] The four resulting solutions were diluted 4-fold in Opti-MEM without serum or phenol red to generate 5× solutions (5 µM and 0.5 µM tracer +/− 100 μM competing compound). To screen the library, a BioTek MultiFlo FX liquid dispenser was used to dispense 22.5 µL of tracer solution to the top 4 rows and 22.5 µL tracer + competing compound solution to the 4 bottom rows. Plates were briefly mixed on an orbital shaker and incubated for 1.5 h at room temperature. […] Plates were briefly mixed on an orbital shaker and incubated for 15 min to allow complementation.

CCR10 = molecular target: T2, CCR10 (Homo sapiens, UniProt P46092); assay: NanoBRET screen HiBiT-CCR10 in HEK293; format: binding; settings: CCR10
T2 construct: purchased Promega (in-house HiBiT-GPCR construct library, NanoBRET)
T2 sequence (P46092 1-362): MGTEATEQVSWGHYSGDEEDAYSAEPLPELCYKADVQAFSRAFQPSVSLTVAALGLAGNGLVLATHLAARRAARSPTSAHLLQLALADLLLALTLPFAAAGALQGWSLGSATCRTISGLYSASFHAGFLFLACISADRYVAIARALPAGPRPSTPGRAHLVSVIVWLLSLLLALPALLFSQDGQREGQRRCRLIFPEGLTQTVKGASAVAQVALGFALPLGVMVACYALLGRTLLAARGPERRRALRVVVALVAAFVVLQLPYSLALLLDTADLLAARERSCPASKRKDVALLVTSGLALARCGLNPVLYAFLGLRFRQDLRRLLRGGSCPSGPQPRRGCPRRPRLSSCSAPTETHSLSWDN
Description: as §1, §2

T1 sequence (P35372 whole entry): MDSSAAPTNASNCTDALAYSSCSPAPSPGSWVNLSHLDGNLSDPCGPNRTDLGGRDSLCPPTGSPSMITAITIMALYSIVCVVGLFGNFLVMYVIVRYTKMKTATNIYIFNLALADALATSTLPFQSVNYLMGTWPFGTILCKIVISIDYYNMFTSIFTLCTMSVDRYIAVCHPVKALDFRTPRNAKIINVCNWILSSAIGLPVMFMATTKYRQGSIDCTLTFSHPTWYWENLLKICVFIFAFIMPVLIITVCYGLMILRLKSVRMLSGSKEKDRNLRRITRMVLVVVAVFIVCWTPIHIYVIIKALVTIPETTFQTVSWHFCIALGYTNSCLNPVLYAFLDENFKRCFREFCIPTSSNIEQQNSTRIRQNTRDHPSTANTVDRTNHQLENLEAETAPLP

| Structure (SMILES) | NanoBRET Fold Response (OPRM1; tracer 0.1μM) | NanoBRET Fold Response (OPRM1; tracer 1μM) | NanoBRET Fold Response (CCR10; tracer 0.1μM) | NanoBRET Fold Response (CCR10; tracer 1μM) | further results |
| --- | --- | --- | --- | --- | --- |
| CN1CCN(C2=Nc3cc(Cl)ccc3N(CC(=O)NCCOCCOCCOCCOCCNC(=O)CCc3ccc4n3[B-](F)(F)[N+]3=C(c5ccc[nH]5)C=CC3=C4)c3ccccc32)CC1 [Clozapine-c-2-NB590] | – | – | – | – | NanoBRET Fold Response (OPRM1; 0.1μM tracer): 0.98; NanoBRET Fold Response (OPRM1; 1μM tracer): 0.94; NanoBRET Fold Response (CCR10; 0.1μM tracer): 1.00; NanoBRET Fold Response (CCR10; 1μM tracer): 0.91 |
| O=C(CCOCCOCCOCCOCCNC(=O)CCc1ccc2n1[B-](F)(F)[N+]1=C(c3ccc[nH]3)C=CC1=C2)NCCCN1CCN(C2=Nc3ccccc3Oc3ccc(Cl)cc32)CC1 [Loxapine-a-2-NB590] | 1.06 | 1.06 | 1.04 | 1.04 | – |
| COc1ccccc1N1CCN(CCCCN2C(=O)c3ccc(CNC(=O)CCOCCOCCOCCOCCNC(=O)CCc4ccc5n4[B-](F)(F)[N+]4=C(c6ccc[nH]6)C=CC4=C5)cc3C2=O)CC1 [NAN-190-2-NB590] | 0.96 | 1.10 | 0.97 | 1.00 | – |
| COc1ccccc1N1CCN(CCCCN2C(=O)c3ccc(CNC(=O)CCOCCNC(=O)c4ccc(CNC(=O)CCc5ccc6n5[B-](F)(F)[N+]5=C(c7ccc[nH]7)C=CC5=C6)cc4)cc3C2=O)CC1 [NAN-190-3-NB590] | 1.39 | 0.91 | 1.04 | 1.27 | – |
| O=C(CCc1ccc2n1[B-](F)(F)[N+]1=C(c3ccc[nH]3)C=CC1=C2)NCc1ccc(C(=O)NCCOCCC(=O)N[C@@H]2CC[C@@]3(O)[C@H]4Cc5ccc(O)c6c5[C@@]3(CCN4CC3CC3)[C@H]2O6)cc1 [Naltrexone-3-NB590] | 1.59 | 1.31 | 1.02 | 0.92 | – |
| Cc1cc2c(s1)Nc1ccccc1N=C2N1CCN(CCCNC(=O)CCOCCOCCOCCOCCNC(=O)CCc2ccc3n2[B-](F)(F)[N+]2=C(c4ccc[nH]4)C=CC2=C3)CC1 [Olanzapine-a-2-NB590] | 0.96 | 1.08 | 1.01 | 0.95 | – |
| O=C(CCc1ccc2n1[B-](F)(F)[N+]1=C(c3ccc[nH]3)C=CC1=C2)NCc1ccc(C(=O)NCCOCCOCCNCC(O)COc2cccc3ccccc23)cc1 (stereo not drawn) [Propranolol-3-NB590] | – | – | – | – | NanoBRET Fold Response (OPRM1; 0.1μM): 1.02; NanoBRET Fold Response (OPRM1; 1μM): 1.21; NanoBRET Fold Response (CCR10; 0.1μM): 1.04; NanoBRET Fold Response (CCR10; 1μM): 1.00 |
| O=C(CCc1ccc2n1[B-](F)(F)[N+]1=C(c3ccc[nH]3)C=CC1=C2)NCCOCCOCCNC(=O)OCCOCCN1CCN(C2=Nc3ccccc3Sc3ccccc32)CC1 [Quetiapine-a-2-NB590] | 0.84 | 0.89 | 1.01 | 0.94 | – |
| Cc1nc2n(c(=O)c1CCN1CCC(c3noc4cc(F)ccc34)CC1)CCCC2OC(=O)NCCOCCOCCOCCOCCNC(=O)CCc1ccc2n1[B-](F)(F)[N+]1=C(c3ccc[nH]3)C=CC1=C2 (stereo not drawn) [Risperidone-2-NB590] | 0.92 | 0.96 | – | 0.95 | – |
| CC(C)N(CC[C@H](c1ccccc1)c1cc(CCNC(=O)CCOCCOCCOCCOCCNC(=O)CCc2ccc3n2[B-](F)(F)[N+]2=C(c4ccc[nH]4)C=CC2=C3)ccc1O)C(C)C [Tolterodine-2-NB590] | 1.23 | 1.10 | 1.17 | 0.97 | – |
